The values below come from PMC6067974 (Neuropharmacology, 2018).

Where two headings read alike, the source gives them in different places. Marks after values point to notes of the source that are not given here.

The subject of series [1] is 45 human receptors, channels, and transporters. Description: PDSP off-target screen, whole panel. It counts as binding. The following applies: at <10 μM.
The conditions of series [2]: cited from earlier work.
In series [3] the test system is mice. The following applies: cited from earlier work.
The test system of series [4] is mice. Description: Indirect calorimetry. The following applies: CGS-21680 0.25 mg/kg, i.p.; C57BL/6J mice.
Series [5] has as its system mice. The note with it: intraarterial CGS-21680; wild type mice; ref Ledent et al., 1997; cited from earlier work.
For series [6], the system named is mice. Description: Telemetric monitoring of Tb and physical activity in mice. It counts as in vivo, mouse. The following applies: for block of PSB-0777-induced hypothermia: i.p. at -15 min, then PSB-0777 1 mg/kg i.p.
Series [7] concerns the target T1, mouse A1AR (Mus musculus, UniProt Q60612).
T1 sequence (Q60612 1-326): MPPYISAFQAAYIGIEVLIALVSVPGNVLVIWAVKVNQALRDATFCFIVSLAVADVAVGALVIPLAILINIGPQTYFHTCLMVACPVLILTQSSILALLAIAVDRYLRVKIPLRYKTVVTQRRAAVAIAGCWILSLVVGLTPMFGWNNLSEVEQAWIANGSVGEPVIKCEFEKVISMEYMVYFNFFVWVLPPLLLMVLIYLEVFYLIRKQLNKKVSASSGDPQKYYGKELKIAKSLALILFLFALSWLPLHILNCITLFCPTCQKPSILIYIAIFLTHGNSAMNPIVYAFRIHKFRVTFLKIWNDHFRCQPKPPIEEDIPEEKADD
The following applies: ref Carlin et al., 2017, cited from earlier work.

For series [8], the target named is A2BAR. The following applies: read-out: Ki, A2BAR (h), human, cited from earlier work.
The target in series [9] is mouse A2AAR (Mus musculus, UniProt Q60613). Description: Radioligand binding, mouse A2AAR.
Sequence of mouse A2AAR (Q60613 whole entry): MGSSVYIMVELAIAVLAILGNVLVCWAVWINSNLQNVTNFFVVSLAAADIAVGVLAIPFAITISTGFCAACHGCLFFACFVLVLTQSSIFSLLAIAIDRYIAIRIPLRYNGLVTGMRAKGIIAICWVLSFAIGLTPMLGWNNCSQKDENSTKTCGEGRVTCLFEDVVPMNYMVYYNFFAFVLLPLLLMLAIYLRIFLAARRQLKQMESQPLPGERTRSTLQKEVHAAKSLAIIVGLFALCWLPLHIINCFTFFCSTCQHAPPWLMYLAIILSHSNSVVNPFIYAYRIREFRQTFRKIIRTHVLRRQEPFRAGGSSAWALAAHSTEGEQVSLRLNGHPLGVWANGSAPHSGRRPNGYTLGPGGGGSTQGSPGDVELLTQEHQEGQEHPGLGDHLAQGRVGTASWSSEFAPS
In series [10] the target is T1, mouse A1AR. Description: Radioligand binding, mouse A1AR. The following applies: for A1AR rat: mouse ratio: ratio of rat Ki to mouse Ki at A1AR.
Series [11] concerns the target T2, mouse A3AR (Mus musculus, UniProt Q61618).
T2 sequence (Q61618 1-319): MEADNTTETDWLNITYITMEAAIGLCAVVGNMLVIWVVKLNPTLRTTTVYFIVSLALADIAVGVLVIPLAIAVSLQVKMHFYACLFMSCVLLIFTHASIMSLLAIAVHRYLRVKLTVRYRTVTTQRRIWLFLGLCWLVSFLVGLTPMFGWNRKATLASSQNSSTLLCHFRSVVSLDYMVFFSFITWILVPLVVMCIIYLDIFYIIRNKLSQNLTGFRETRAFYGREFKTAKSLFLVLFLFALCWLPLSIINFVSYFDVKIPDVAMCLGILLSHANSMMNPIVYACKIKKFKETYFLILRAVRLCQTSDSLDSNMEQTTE
Description: Radioligand binding, mouse A3AR.

Series [12] deals with A1AR. The note with it: cited from earlier work.
Series [13] relates to A2BAR. The note with it: rat; ref Hide et al., 1992; cited from earlier work.
The subject of series [14] is brown adipose tissue. The following applies: by stimulation of brown adipose tissue; ref Gnad et al., 2014; cited from earlier work.
For series [15], the target named is human β1 adrenergic receptor (Homo sapiens, UniProt P08588). The note with it: read-out: Ki, human β1 adrenergic receptor; PDSP screen.
Sequence of human β1 adrenergic receptor (P08588 whole entry): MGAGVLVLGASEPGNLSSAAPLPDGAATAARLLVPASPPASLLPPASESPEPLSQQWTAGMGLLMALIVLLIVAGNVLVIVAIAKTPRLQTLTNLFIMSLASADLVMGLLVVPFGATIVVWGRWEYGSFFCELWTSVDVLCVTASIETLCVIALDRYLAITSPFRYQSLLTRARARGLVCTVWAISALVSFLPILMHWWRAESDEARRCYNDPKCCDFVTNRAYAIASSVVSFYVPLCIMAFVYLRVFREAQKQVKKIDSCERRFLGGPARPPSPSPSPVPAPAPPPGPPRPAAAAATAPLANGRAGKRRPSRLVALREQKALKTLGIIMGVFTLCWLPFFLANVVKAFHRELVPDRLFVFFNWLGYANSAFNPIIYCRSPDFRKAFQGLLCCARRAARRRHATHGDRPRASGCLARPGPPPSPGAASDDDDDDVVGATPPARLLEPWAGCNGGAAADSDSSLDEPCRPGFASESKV
Series [16] deals with human β3 adrenergic receptor (Homo sapiens, UniProt P13945). The following applies: read-out: Ki, human β3 adrenergic receptor; PDSP screen.
Sequence of human β3 adrenergic receptor (P13945 whole entry): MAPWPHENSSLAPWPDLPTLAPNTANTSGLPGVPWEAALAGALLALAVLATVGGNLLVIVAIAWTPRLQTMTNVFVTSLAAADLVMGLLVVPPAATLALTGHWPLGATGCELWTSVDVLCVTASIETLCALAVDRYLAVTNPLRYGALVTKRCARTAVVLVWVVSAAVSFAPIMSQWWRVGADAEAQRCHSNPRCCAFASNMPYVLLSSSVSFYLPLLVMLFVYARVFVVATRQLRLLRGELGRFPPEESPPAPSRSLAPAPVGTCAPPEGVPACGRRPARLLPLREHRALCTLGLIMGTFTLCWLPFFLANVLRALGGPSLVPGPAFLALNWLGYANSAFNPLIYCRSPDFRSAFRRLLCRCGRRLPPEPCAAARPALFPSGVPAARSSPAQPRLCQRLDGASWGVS
The target of series [17] is serotonin transporter (SERT) (Homo sapiens, UniProt P31645). Description: PDSP off-target radioligand binding, serotonin transporter.
Sequence of serotonin transporter (SERT) (P31645 whole entry): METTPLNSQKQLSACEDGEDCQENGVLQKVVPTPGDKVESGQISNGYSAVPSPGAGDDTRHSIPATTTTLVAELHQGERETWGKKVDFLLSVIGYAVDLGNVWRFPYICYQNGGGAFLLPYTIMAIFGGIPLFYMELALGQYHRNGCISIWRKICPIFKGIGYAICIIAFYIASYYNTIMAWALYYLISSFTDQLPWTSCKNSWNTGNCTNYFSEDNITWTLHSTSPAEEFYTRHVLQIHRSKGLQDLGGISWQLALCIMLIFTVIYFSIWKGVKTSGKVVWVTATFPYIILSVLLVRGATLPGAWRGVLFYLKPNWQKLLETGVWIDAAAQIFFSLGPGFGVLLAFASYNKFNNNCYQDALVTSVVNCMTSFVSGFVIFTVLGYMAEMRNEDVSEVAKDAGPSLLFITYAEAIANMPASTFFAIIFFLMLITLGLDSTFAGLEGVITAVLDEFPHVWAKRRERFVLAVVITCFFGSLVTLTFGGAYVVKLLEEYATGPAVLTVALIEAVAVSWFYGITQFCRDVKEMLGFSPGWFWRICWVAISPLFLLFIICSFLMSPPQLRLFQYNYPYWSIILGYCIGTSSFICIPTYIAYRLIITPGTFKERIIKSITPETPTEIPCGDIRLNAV
Series [18] concerns the target T2, mouse A3AR. The following applies: read-out: mouse Ki, A3AR, ref Carlin et al., 2017; cited from earlier work.
Series [19] has as its target M3 acetylcholine receptor (Homo sapiens, UniProt P20309). Description: PDSP off-target radioligand binding, M3 acetylcholine receptor.
In series [20] the target is human 5HT2B receptor (Homo sapiens, UniProt P41595). Description: PDSP off-target radioligand binding, 5HT2B receptor.
Sequence of human 5HT2B receptor (P41595 whole entry): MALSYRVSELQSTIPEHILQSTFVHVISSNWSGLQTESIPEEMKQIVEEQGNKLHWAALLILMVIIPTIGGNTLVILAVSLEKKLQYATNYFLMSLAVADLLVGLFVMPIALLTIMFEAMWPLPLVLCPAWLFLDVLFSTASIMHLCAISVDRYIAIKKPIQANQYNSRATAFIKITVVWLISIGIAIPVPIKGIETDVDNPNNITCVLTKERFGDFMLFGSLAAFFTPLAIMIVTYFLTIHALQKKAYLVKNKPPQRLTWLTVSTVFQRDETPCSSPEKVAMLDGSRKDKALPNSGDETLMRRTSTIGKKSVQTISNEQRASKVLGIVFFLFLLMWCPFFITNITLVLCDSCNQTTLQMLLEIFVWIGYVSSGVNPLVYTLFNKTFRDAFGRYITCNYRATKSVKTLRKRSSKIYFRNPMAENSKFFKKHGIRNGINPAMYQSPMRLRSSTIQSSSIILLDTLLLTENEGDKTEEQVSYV
Where [21] appears, read: CGS-21680 0.01–1 mg/kg, i.p., C57BL/6J mice.
Setting [22] is: preladenant 1 mg/kg, i.p., alone, data not shown.
The mark [23] stands for this setting: read-out: mouse Ki, A2AAR, mouse, current results, ± SEM.
Setting [24] is: read-out: mouse Ki, A1AR, mouse, current results, ± SEM.
The mark [25] stands for this setting: PSB-0777 ≤3 mg/kg, i.p., wild type mice.
Setting [26] is: SCH442416 3 mg/kg, i.p., alone, data not shown.

Sequence of M3 acetylcholine receptor (P20309 whole entry): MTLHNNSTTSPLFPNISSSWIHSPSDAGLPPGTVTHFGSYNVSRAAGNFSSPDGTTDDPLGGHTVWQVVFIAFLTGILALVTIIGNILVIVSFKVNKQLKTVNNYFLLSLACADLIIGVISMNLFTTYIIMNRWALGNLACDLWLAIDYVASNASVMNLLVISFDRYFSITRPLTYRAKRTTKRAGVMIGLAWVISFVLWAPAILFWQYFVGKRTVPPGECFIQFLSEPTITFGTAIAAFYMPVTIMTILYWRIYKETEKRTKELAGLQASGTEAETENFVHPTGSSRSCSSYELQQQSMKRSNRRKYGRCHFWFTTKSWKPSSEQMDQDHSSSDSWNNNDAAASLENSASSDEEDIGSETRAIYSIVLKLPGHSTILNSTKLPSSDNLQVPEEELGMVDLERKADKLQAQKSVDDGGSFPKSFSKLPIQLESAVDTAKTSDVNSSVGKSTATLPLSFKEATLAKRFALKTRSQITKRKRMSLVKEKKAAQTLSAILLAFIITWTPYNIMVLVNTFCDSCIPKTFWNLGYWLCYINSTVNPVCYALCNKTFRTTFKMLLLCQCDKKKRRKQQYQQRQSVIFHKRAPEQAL

`CCNC(=O)[C@H]1O[C@@H](n2cnc3c(N)nc(NCCc4ccc(CCC(=O)O)cc4)nc32)[C@H](O)[C@@H]1O` [CGS-21680, 2-[p-(2-carboxyethyl)phenethylamino]-5′-N-ethylcarboxamidoadenosine]: the off-target activities detected entry in series [1] is “none”. Also, the brain penetrant result in series [2] (ref Nikodijevic et al., 1990) is recorded as “no ^d”. Further, the hypothermia result in series [3] (CGS-21680, high i.c.v. dose, ref Anderson et al., 1994) is “mild hypothermia”; in [3] (CGS-21680, peripheral dosing, ref Eisner et al., 2017), “mild hypothermia”. Besides, in [4], the food intake result is reported as “reduced food intake”. In addition, in series [4], the “metabolic rate (total energy expenditure)” value was “marked reduction in metabolic rate”. In [4], the “time of Tb nadir” value is given as ~ 65 minutes. The “time of energy expenditure nadir” value in series [4] is recorded as ~ 26 minutes. In series [5], the blood pressure entry was “caused hypotension”. The “Tb response (hypothermia)” value in [6] (CGS-21680 0.01 mg/kg i.c.v., C57BL/6J mice) was “No hypothermia”; in series [6] (CGS-21680 0.5 mg/kg, i.p., Adora1−/−;Adora3−/− mice) it was “intact”; in series [6] (CGS-21680 0.5 mg/kg, i.p., Adora2a−/− mice), “did not cause hypothermia”; in series [6] (CGS-21680 0.5 mg/kg, i.p., KitW−sh/W−sh mice (lack mast cells)), “showed a hypothermic response”; in [6] (setting [21]) it was “dose-dependent hypothermia”. For the same molecule, in [6] (setting [21]), the physical activity entry is recorded as “hypoactivity”.
Regarding `OC[C@H]1O[C@@H](n2cnc3c(NC4CCCC4)ncnc32)[C@H](O)[C@@H]1O` [N^6-cyclopentyladenosine], in series [7] (A1AR vs A3AR), the “advantage in binding affinity (A1AR vs A3AR)” value was 2000 fold.
For `CNC(=O)c1cnn(-c2nc(N)c3ncn([C@@H]4O[C@H](CO)[C@@H](O)[C@H]4O)c3n2)c1` [regadenoson, 1-[6-amino-9-[(2R,3R,4S,5R)-3,4-dihydroxy-5-(hydroxymethyl)oxolan-2-yl]purin-2-yl]-N-methylpyrazole-4-carboxamide], the Ki in series [8] (ref Gao et al., 2001) was above 100000 nM; in series [9], 77.2 ± 6.3 nM; in [10], 7.75 ± 0.05 nM. Also, in series [10] (mouse binding, Table 1), the “binding to A1AR more tightly than to A2AAR” value amounted to 10 fold. In series [10] (mouse vs human A1AR (human value Gao et al., 2001)), the “binding to mouse A1AR better than human A1AR” value is listed as above 1000 fold. Further, in series [11] (read-out: % inhibition at 10 μM, mouse A3AR), the inhibition at 10 µM turned out to be 7 ± 2%.
Consider `COCCOc1ccc(N2CCN(CCn3ncc4c3nc(N)n3nc(-c5ccco5)nc43)CC2)cc1` [preladenant], for which, in [6] (setting [22]), the Tb entry is “increase in Tb” and the locomotor activity result is recorded as “increased locomotor activity”.
Turning to `CCNC(=O)[C@H]1O[C@@H](n2cnc3c(N)nc(NCCc4ccc(CCC(=O)NCCN)cc4)nc32)[C@H](O)[C@@H]1O` [APEC, 2-[[2-[4-[2-(2-aminoethyl)-aminocarbonyl]ethyl]phenyl]ethylamino]-5′-N-ethyl-carboxamidoadenosine], the Ki in [12] (read-out: rat Ki, A1AR, ref Kim et al., 1994) was 400 nM; in series [9] (setting [23]), 3.57 ± 0.22 nM; in [10] (setting [24]), 4.17 ± 0.15 nM; in series [11] (read-out: mouse Ki, A3AR, mouse, current results, ± SEM) it was 55.1 ± 4.3 nM. Besides, the “A2BAR (r) activity” value in series [13] was “inactive (r) ^h”. Besides, the “binding to mouse A1AR better than rat A1AR” value in series [10] (mouse vs rat A1AR) is given as ~ 100 fold. Moreover, the “A1AR rat: mouse ratio” value in [10] was found to be 95. The Tb response result in [6] (APEC 1.7 μg/kg i.p.) is “blunting the handling hyperthermia”. Besides, the “Tb response (hypothermia)” value in series [6] (APEC 50 μg/kg i.p.) is reported as “robust hypothermia”; in series [6] (APEC i.p., Adora1−/−;Adora3−/− mice), “attenuated”; in series [6] (APEC i.p., Adora2a−/− mice), “attenuated”; in series [6] (APEC i.p., Adora2b−/− mice) it was “fully intact”. Further, the physical activity entry in series [6] (APEC 50 μg/kg i.p.) is given as “hypoactivity”.
`Nc1ncnc2c1ncn2[C@@H]1O[C@H](CO)[C@@H](O)[C@H]1O` [adenosine]: the “Tb response (hypothermia)” value in series [6] (adenosine 100 mg/kg, i.p., Adora1−/−;Adora3−/− mice) is “robust hypothermia”.
Consider `N.Nc1nc(SCCc2ccc(S(=O)(=O)O)cc2)nc2c1ncn2[C@@H]1O[C@H](CO)[C@@H](O)[C@H]1O` [PSB-0777, 4-[2-[(6-Amino-9-b-D-ribofuranosyl-9H-purin-2-yl)thio]ethyl]benzenesulfonic acid ammonium salt], for which the energy expenditure result in series [14] is “increased energy expenditure”. Besides, the Ki in [15] is 4400 nM; in series [8] (ref El-Tayeb et al., 2011) it was above 10000 nM; in series [12] (read-out: rat Ki, A1AR, ref El-Tayeb et al., 2011), at least 10000 nM; in series [9] (setting [23]), 193 ± 28 nM; in [16], 3300 nM; in series [10] (setting [24]), 18.4 ± 1.1 nM. Besides, in [10], the “A1AR rat: mouse ratio” value was above 500. Besides, the “% inhibition at 10 μM, mouse A3AR” value in series [11] (mouse, 10 μM, current results, ± SEM) turned out to be 26 ± 1% ^e. Besides, the “Tb response (hypothermia)” value in [6] (PSB-0777 i.p., Adora2a−/− mice) was “abolished”; in series [6] (setting [25]), “dose-dependent hypothermia”. In addition, the physical activity entry in series [6] (setting [25]) is reported as “hypoactivity”.
For `CCN(CC)CC.Nc1nc2c(cnn2CCCc2ccc(OCc3ccc(S(=O)(=O)O)cc3)cc2)c2nc(-c3ccco3)nn12` [MRS7352, 4-((4-(3-(5-amino-2-(furan-2-yl)-7H-pyrazolo[4,3-e][1,2,4]triazolo[1,5-c]pyrimidin-7-yl)propyl)phenoxy)methyl)benzenesulfonate triethylammonium salt], the physical activity entry in [6] (MRS7352 3 mg/kg, i.p.) is “without affecting physical activity”. In addition, the “block of PSB-0777-induced hypothermia” value in series [6] (MRS7352 3 mg/kg) was “completely blocked”.
In the case of `COc1ccc(CCCn2ncc3c2nc(N)n2nc(-c4ccco4)nc32)cc1` [SCH442416, 2-(2-furyl)-7-[3-(4-methoxyphenyl)propyl]-7H-pyrazolo[4,3-e][1,2,4]triazolo[1,5-c]pyrimidin-5-amine], the Ki was 6100 nM in [17]; above 10000 nM in series [8] (ref Todde et al., 2000); 1820 nM in [12] (read-out: rat Ki, A1AR, ref Todde et al., 2000); 765 nM in [7] (read-out: mouse Ki, A1AR, mouse); above 10000 nM in series [18]; 6800 nM in [19]. The same molecule returned a Ki in series [20] of 910 nM. Besides, the brain penetrant entry in series [2] (ref Todde et al., 2000) was “yes ^j”. Besides, in [6] (SCH442416 0.6 mg/kg), the “block of PSB-0777-induced hypothermia” value is “largely blocked”. Also, the physical activity entry in series [6] (SCH442416 0.6 mg/kg, i.p., by itself, p=0.078) is listed as “trended to increase activity”. Moreover, the Tb result in series [6] (SCH442416 0.6 mg/kg, i.p., by itself, p=0.10) is listed as “trended to increase”; in series [6] (setting [26]), “increase in Tb”. The locomotor activity result in series [6] (setting [26]) was “increased locomotor activity”.

One may read the Ki as the equilibrium dissociation constant of an inhibitor or competing ligand from its target. For orientation: inhibition means the percentage by which the read-out fell short of the control.
